Test results reported in patent US20260345641A1, “COMPOSITIONS AND USES THEREOF” (Algorae Pharmaceuticals Ltd, priority 2023, published 2026).

Test system: SH-SY5Y cells
Experiment: Gene expression analysis by RNA sequencing in the presence of Aβ
Assay type: cell-based, human
Conditions: 5 μM, with Aβ
Text: The SH-S5Y5 neuroblastoma cell line was used for pre-clinical analysis. The SH-S5Y5 cell line is commonly used as a model for neurodegenerative disorders as the cells can be converted to various types of functional neurons by the addition of specific compounds (see, e.g., Xicoy et al., 2017, Molecular Neurodegeneration, 12: 10). In addition, the SH-S5Y5 cell line has been used widely in experimental neurological studies, including analysis of neuronal differentiation, metabolism, and function related to neurodegenerative processes, neurotoxicity and neuroprotection (see, e.g., Datki et al., 2003, Brain Research Bulletin, 62(3): 22-229; and Xie et al., 2010, Chinese Medical Journal, 123(8): 1086-1092).
Total RNA was isolated from cells using TRIzol in accordance with the manufacturer's instructions (Invitrogen, Carlsbad, CA, USA). RNA concentration and quality was assessed using a NanoDrop spectrophotometer. Only samples with a 260/280 ratio of ≥1.8 were used for further analysis.
Messenger RNA (mRNA) was purified from total RNA using poly-T oligo attached magnetic beads. After fragmentation, cDNA synthesis was performed in accordance with the manufacturer's instructions (Illumina, San Diego, CA, USA) to generate a directional and non-directional library. Libraries were checked with Qubit, real-time PCR was performed for quantification, and size distribution detection was performed using the Bioanalyzer. Quantified libraries were pooled and sequenced on an Illumina platform, according to the manufacturer's instructions.
Raw reads were filtered and mapped to human reference genome (GRCh38/hg38) using HISAT2. Differential gene expression analysis was performed using R Package DEG seq2. […] Manual annotation of genes previously associated with specific neurodegenerative disorders and dementias was performed following a text mining analysis.

## COc1cc2c(cc1OC)C(=O)C(CC1CCN(Cc3ccccc3)CC1)C2 (stereo not shown) [Donepezil]
Control 7.789, P 0.022
  ATP13A2 gene expression: 5.931
Control 7.889, P 0.013
  TUBB4A gene expression: 12.522
Control 8.149, P 0.002
  C19orf12 gene expression: 8.062
Control 8.395, P 0.009
  COMT gene expression: 7.242
Control 8.460, P 0.007
  CLCN6 gene expression: 9.489
Control 8.472, P 0.018
  SLC2A1 gene expression: 9.539
Control 8.491, P 0.023
  KIF5A gene expression: 7.978
Control 8.733, P 0.049
  MT-TE gene expression: 14.784
Control 8.739, P 0.008
  ASTN2 gene expression: 10.467
Control 8.840, P 0.016
  GAP43 gene expression: 14.884
Control 8.986, P 0.035
  HTRA1 gene expression: 3.452
Control 9.062, P 0.018
  GPT2 gene expression: 9.323
Control 9.086, P 0.007
  RELN gene expression: 8.830
Control 9.232, P 0.018
  MAP2 gene expression: 13.284
Control 9.502, P 0.001
  FAR1 gene expression: 9.330
Control 9.616, P 0.008
  ULK1 gene expression: 7.435
Control 9.625, P 0.053
  MT-TR gene expression: 7.395
Control 9.982, P 0.001
  AUH gene expression: 9.689
Control 10.132, P 0.055
  UBQLN2 gene expression: 10.681
Control 10.247, P 0.010
  TP53 gene expression: 10.184
Control 10.517, P 0.005
  RNF216 gene expression: 11.360
Control 10.575, P 0.020
  LMNB1 gene expression: 13.789
Control 10.591, P 0.002
  SDHA gene expression: 10.690
Control 10.619, P 0.034
  CTSF gene expression: 12.207
Control 10.884, P 0.000
  PHIP gene expression: 10.131
Control 10.972, P 0.010
  NEAT1 gene expression: 8.854
Control 10.993, P 0.009
  GSR gene expression: 14.077
Control 11.016, P 0.010
  NBEA gene expression: 12.180
Control 11.029, P 0.010
  HEXB gene expression: 11.767
Control 11.189, P 0.025
  NIPA1 gene expression: 10.862
Control 11.237, P 0.009
  PDGFRA gene expression: 11.624
Control 11.268, P 0.004
  SORT1 gene expression: 9.054
Control 11.385, P 0.035
  DLAT gene expression: 10.390
Control 11.863, P 0.001
  CTSA gene expression: 12.014
Control 11.948, P 0.026
  AIFM1 gene expression: 10.769
Control 12.106, P 0.000
  KIF4A gene expression: 12.317
Control 12.209, P 0.057
  PIK3CA gene expression: 9.685
Control 12.408, P 0.006
  MT-TM gene expression: 7.334
Control 12.549, P 0.033
  PSEN1 gene expression: 10.463
Control 12.563, P 0.049
  CST3 gene expression: 14.607
Control 12.578, P 0.015
  PNKP gene expression: 13.753
Control 12.586, P 0.050
  UBE4A gene expression: 11.589
Control 12.767, P 0.010
  PANK2 gene expression: 5.414
Control 12.825, P 0.001
  PINK1 gene expression: 9.640
Control 12.857, P 0.025
  SERPINI1 gene expression: 12.924
Control 13.063, P 0.010
  NEFL gene expression: 22.943
Control 13.758, P 0.001
  TOMM40 gene expression: 15.441
Control 13.790, P 0.022
  PMPCA gene expression: 11.969
Control 13.838, P 0.000
  PRKAR1B gene expression: 14.889
Control 14.274, P 0.012
  NGF gene expression: 1.165
Control 14.483, P 0.017
  EIF2B5 gene expression: 12.247
Control 14.777, P 0.018
  NEFH gene expression: 13.335
Control 15.661, P 0.052
  TBK1 gene expression: 12.891
Control 15.666, P 0.035
  SPG21 gene expression: 17.306
Control 15.688, P 0.029
  MIR103A2 gene expression: 9.508
Control 16.143, P 0.004
  DNAJC5 gene expression: 18.101
Control 16.174, P 0.024
  SDHAF1 gene expression: 17.490
Control 16.206, P 0.012
  ALDH18A1 gene expression: 18.398
Control 16.315, P 0.045
  BIRC6 gene expression: 14.545
Control 16.386, P 0.025
  SMCR8 gene expression: 9.923
Control 16.783, P 0.011
  SCARB2 gene expression: 20.762
Control 17.149, P 0.014
  HCFC1 gene expression: 21.365
Control 17.283, P 0.000
  MT-TV gene expression: 9.882
Control 18.066, P 0.016
  KCTD7 gene expression: 14.737
Control 18.213, P 0.001
  CDK1 gene expression: 31.665
Control 18.358, P 0.008
  WDR45 gene expression: 10.730
Control 18.408, P 0.038
  ATP6V1A gene expression: 16.105
Control 19.279, P 0.006
  ATXN7L3B gene expression: 20.868
Control 19.436, P 0.034
  MT-TY gene expression: 14.109
Control 19.482, P 0.010
  DNAJB6 gene expression: 13.438
Control 19.578, P 0.001
  MT-TN gene expression: 4.546
Control 19.641, P 0.019
  DNMT1 gene expression: 19.982
Control 19.713, P 0.000
  HRAS gene expression: 18.552
Control 19.818, P 0.004
  SNHG1 gene expression: 17.384
Control 20.006, P 0.004
  SYP gene expression: 15.060
Control 20.034, P 0.031
  BACE1 gene expression: 16.945
Control 20.557, P 0.010
  ACHE gene expression: 15.012
Control 21.060, P 0.050
  SMARCC1 gene expression: 23.108
Control 21.622, P 0.000
  CPT1C gene expression: 23.209
Control 22.012, P 0.020
  SETD1A gene expression: 11.489
Control 23.073, P 0.013
  LRP10 gene expression: 19.237
Control 23.288, P 0.016
  DIAPH1 gene expression: 23.289
Control 23.590, P 0.040
  NDUFS4 gene expression: 31.457
Control 24.343, P 0.029
  TIA1 gene expression: 18.552
Control 24.655, P 0.014
  SORCS1 gene expression: 27.879
Control 24.804, P 0.015
  MADD gene expression: 17.028
Control 25.187, P 0.004
  MAP1B gene expression: 31.197
Control 25.949, P 0.007
  PNPLA6 gene expression: 14.472
Control 26.112, P 0.003
  HTRA2 gene expression: 24.427
Control 26.563, P 0.006
  FUS gene expression: 23.115
Control 26.776, P 0.015
  CHRNA3 gene expression: 35.011
Control 27.791, P 0.022
  STARD7 gene expression: 25.690
Control 28.376, P 0.019
  RGS4 gene expression: 23.445
Control 28.427, P 0.027
  RRM2B gene expression: 15.106
Control 29.629, P 0.024
  OTUD5 gene expression: 29.255
Control 29.814, P 0.009
  MMADHC gene expression: 28.376
Control 31.064, P 0.022
  PHF1 gene expression: 22.592
Control 31.247, P 0.010
  XPR1 gene expression: 53.075
Control 31.479, P 0.015
  TFG gene expression: 30.210
Control 32.375, P 0.003
  DEGS1 gene expression: 28.878
Control 32.378, P 0.007
  SQSTM1 gene expression: 38.955
Control 32.383, P 0.017
  TCF4 gene expression: 36.707
Control 32.930, P 0.001
  PDGFRB gene expression: 20.075
Control 33.422, P 0.001
  UNC5C gene expression: 34.253
Control 34.958, P 0.008
  COL3A1 gene expression: 29.884
Control 37.146, P 0.001
  MT-TQ gene expression: 28.576
Control 38.202, P 0.008
  NID1 gene expression: 51.536
Control 38.304, P 0.003
  COASY gene expression: 24.487
Control 40.014, P 0.054
  TMEM230 gene expression: 35.809
Control 43.913, P 0.009
  GRN gene expression: 38.715
Control 44.413, P 0.023
  SOD1 gene expression: 54.134
Control 44.506, P 0.001
  HNRNPDL gene expression: 58.385
Control 46.194, P 0.005
  EIF4G1 gene expression: 47.437
Control 49.074, P 0.025
  VCP gene expression: 49.391
Control 51.257, P 0.048
  ATP6V1E1 gene expression: 41.488
Control 53.427, P 0.010
  GBA2 gene expression: 42.069
Control 54.907, P 0.006
  PARK7 gene expression: 62.824
Control 63.840, P 0.016
  EEF1A2 gene expression: 77.336
Control 74.063, P 0.023
  MT-TP gene expression: 57.524
Control 88.738, P 0.014
  U2AF2 gene expression: 53.895
Control 108.757, P 0.004
  MT-TS1 gene expression: 75.947
Control 137.725, P 0.007
  PRDX1 gene expression: 123.771
Control 180.363, P 0.003
  HNRNPA1 gene expression: 274.269
Control 193.754, P 0.003
  GNAS gene expression: 202.087
Control 281.366, P 0.001
  MT-ND6 gene expression: 64.249
Control 293.865, P 0.033
  APP gene expression: 159.632
Control 386.845, P 0.010
  PFN1 gene expression: 384.213
Control 388.214, P 0.017
  MT-ATP8 gene expression: 298.175
Control 423.318, P 0.015
  FTL gene expression: 514.018
Control 1304.948, P 0.012
  MT-ND5 gene expression: 1379.984
Control 2654.440, P 0.010
  MT-ND1 gene expression: 2177.390
Control 2855.888, P 0.019
  MT-ND2 gene expression: 2011.949
Control 4523.043, P 0.003
  MT-CYB gene expression: 4140.601
Control 6360.482, P 0.003
  MT-CO3 gene expression: 6139.890
Control 6754.328, P 0.009
  MT-ATP6 gene expression: 5525.655
First listing, control 3.205, P 0.014
  COL4A1 gene expression: 6.341
First listing, control 7.376, P 0.015
  APBB2 gene expression: 5.038
First listing, control 7.739, P 0.018
  MTR gene expression: 9.723
First listing, control 11.205, P 0.017
  DNAJC6 gene expression: 14.537
First listing, control 25.053, P 0.010
  TWNK gene expression: 15.384
Second listing, control 3.206, P 0.014
  COL4A1 gene expression: 4.649
Second listing, control 7.118, P 0.015
  APBB2 gene expression: 6.231
Second listing, control 8.443, P 0.018
  MTR gene expression: 8.954
Second listing, control 12.142, P 0.017
  DNAJC6 gene expression: 12.821
Second listing, control 22.506, P 0.010
  TWNK gene expression: 19.867
